Here are results for eleven compounds from patent US9078871B2, “Estrogen receptor modulators and uses thereof” (SERAGON PHARMACEUTICALS, INC., priority 2010, dated 2015).

Where only a bound is given, the exact number is not on record here.

Holding throughout (format): cell-based
The test system of one test is MCF-7 cells. Put plainly: Breast Cancer Cell Viability Assay (MCF7 Viability Assay). Particulars: 5 days' compound exposure, CellTiter-Glo; for IC50: Homo sapiens, MCF7, 120 h. The method, then:
MCF-7 cells were adjusted to a concentration of 20,000 cells per mL in RPMI containing 10% FBS and 20 mM HEPES. 16 microliters of the cell suspension (320 cells) was added to each well of a 384 well plate, and the cells were incubated overnight to allow the cells to adhere. The following day an eleven point, serial semilog dilution of each compound was added to the cells in 16 μL at a final concentration ranging from 0.3-0.000003 μM. After 5 days' compound exposure, 16 μL of CellTiter-GLo (Promega, Madison Wis.) was added to the cells the relative luminescence units (RLUs) of each well was determined. CellTiter-Glo added to 32 μL of medium without cells was used to obtain a background value. The Percent viability of each sample was determined as follows: (RLU sample-RLU background/RLU untreated cells-RLU background)×100=% viability.
For orientation: In ATP-based viability assays light output follows the ATP content of the culture.

The target in test [1] is T1, ER-α (Homo sapiens, UniProt P03372).
T1 construct: endogenous in cells; host or cells: MCF-7
T1 sequence (P03372 1-595): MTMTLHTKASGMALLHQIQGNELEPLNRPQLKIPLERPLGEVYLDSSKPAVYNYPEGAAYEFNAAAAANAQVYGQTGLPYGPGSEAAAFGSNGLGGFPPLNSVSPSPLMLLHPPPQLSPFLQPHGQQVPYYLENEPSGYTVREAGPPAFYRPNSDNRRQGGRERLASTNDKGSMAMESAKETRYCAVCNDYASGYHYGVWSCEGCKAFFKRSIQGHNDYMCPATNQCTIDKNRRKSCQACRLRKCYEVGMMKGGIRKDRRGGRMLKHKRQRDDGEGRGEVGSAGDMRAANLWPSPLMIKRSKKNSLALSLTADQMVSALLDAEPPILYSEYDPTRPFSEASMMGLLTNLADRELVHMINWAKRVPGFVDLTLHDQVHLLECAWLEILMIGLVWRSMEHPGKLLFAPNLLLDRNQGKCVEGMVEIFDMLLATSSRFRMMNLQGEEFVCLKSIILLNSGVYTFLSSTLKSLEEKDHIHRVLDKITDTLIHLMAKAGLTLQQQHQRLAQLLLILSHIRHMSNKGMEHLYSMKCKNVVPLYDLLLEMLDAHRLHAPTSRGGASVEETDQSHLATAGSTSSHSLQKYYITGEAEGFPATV
Description: ER-α In Cell Western Assay (ER1D5). The note with it: MCF-7 cells, ER1D5 antibody, 4 or 24 hr post compound addition, read-out: ER In-Cell Western Assay (ER1D5); for Emax: MCF7, Max Response; for DC50: IC50. The procedure: (§1) MCF-7 cells were adjusted to a concentration of 200,000 cells per mL in RPMI containing 10% charcoal-stripped FBS and 20 mM HEPES. 16 microliters of the cell suspension (3200 cells) was added to each well of a poly-D-lysine 384 well plate, and the cells were incubated overnight to allow the cells to adhere. The following day an eleven point, serial semilog dilution of each compound was added to the cells in 16 μL at a final concentration ranging from 0.3-0.000003 μM. At 4 or 24 hr post compound addition, the cells were fixed (10% formalin in PBS) for 20 minutes. Cells were permeabalized in PBS 0.1% Triton and blocked with LICOR blocking buffer (50 μl/well, 90′). The wells were then incubated overnight at 4° C. with ER1D5 (Santa Cruz Biotechnology) diluted 1:100 in LICOR blocking buffer/0.1% Tween-20. Wells which were treated with blocking buffer with Tween but no antibody were used as a background control. Wells were washed with 0.1% Tween-20/PBS and then incubated in goat anti-mouse IRDye™ 800CW (LICOR Inc.; 1:1000) and DRAQ5 DNA dye (1:2000 for 2 mM stock) diluted in LICOR blocking buffer containing 0.1% Tween-20 and 0.01% SDS for 60 minutes. Cells were washed (50 μl/well, 5′ each) in 0.1% Tween-20/PBS. Plates were scanned on a LICOR Odyssey infrared imaging system. Integrated intensities in the 800 nm channel and 700 nm channel were measured to determine levels of ER and DNA respectively. Percent ER levels were determined as follows: (Integrated intensity 800 nm sample/integrated intensity 700 nm sample)/(Integrated intensity 800 nm untreated cells/integrated intensity 700 nm untreated cells)×100=% ER levels.

The target of test [2] is T1, ER-α. Put plainly: ER-α in Cell Western Assay (SP1). The note with it: MCF-7 cells, SP1 rabbit monoclonal Ab, 4 or 24 hr post compound addition, read-out: ER In-Cell Western Assay (SP1); for Emax: MCF7, Max Response; for DC50: IC50. The procedure:
as §1, with “with SP1 rabbit monoclonal Ab (Thermo Scientific)” for “with ER1D5 (Santa Cruz Biotechnology)”, “diluted 1:1000” for “diluted 1:100”, “goat anti-rabbit” for “goat anti-mouse”

One may read the IC50 as the point on the concentration scale where inhibition reaches its midpoint. Low values mean greater potency in that assay, high ones weaker potency in that assay.

With `CC1=C(c2ccc(F)cc2)C(c2ccc(OC[C@H](C)N3CC[C@@H](C)C3)cc2)Oc2ccc(O)cc21` (mixture of isomers) [Example 30, 3-(4-Fluorophenyl)-4-methyl-2-(4-((S)-2-((R)-3-methylpyrrolidin-1-yl)propoxy)phenyl)-2H-chromen-6-ol], in the test on MCF-7 cells, the “MCF7 Viability Assay Max Response” value is “++ (++ = a single % value ≧50%)” and the IC50 was no more than 1 nM. Besides, on ER-α [1], the Emax is no less than 65% and the DC50 was no more than 1 nM. For the same compound, on ER-α [2], the Emax was in the range of 60 to 85% and the DC50 was no more than 1 nM.

With `CC1=C(c2cccc(O)c2)[C@H](c2ccc(OC[C@H](C)N3CC[C@@H](C)C3)cc2)Oc2ccc(O)cc21` (single isomer, unassigned) [Example 2a], in the test on MCF-7 cells, the “MCF7 Viability Assay Max Response” value is recorded as “++ (++ = a single % value ≧50%)” and the IC50 was no more than 1 nM. At ER-α [1], the Emax is no less than 65% and the DC50 was no more than 1 nM. In addition, on ER-α [2], the Emax was no less than 85% and the DC50 is no more than 1 nM.

With `CC1=C(c2cccc(O)c2)[C@@H](c2ccc(OC[C@H](C)N3CC[C@@H](C)C3)cc2)Oc2ccc(O)cc21` (single isomer, unassigned) [Example 2b], in the test with MCF-7 cells, the “MCF7 Viability Assay Max Response” value is “++ (++ = a single % value ≧50%)” and the IC50 was greater than 1 nM. At ER-α [1], the Emax is no less than 65% and the DC50 is greater than 1 nM. For the same compound, on ER-α [2], the Emax is no less than 85% and the DC50 was greater than 1 nM.

On to `CC1=C(c2cccc(O)c2)C(c2ccc(OC[C@H](C)N3CCCCC3)cc2)Oc2ccc(O)cc21` (stereo partly drawn) [Example 1, 3-(3-Hydroxyphenyl)-4-methyl-2-(4-((S)-2-(piperidin-1-yl)propoxy)phenyl)-2H-chromen-6-ol], for which, in the test on MCF-7 cells, the “MCF7 Viability Assay Max Response” value is recorded as “++ (++ = a single % value ≧50%)” and the IC50 was no more than 1 nM. At ER-α [1], the Emax fell in the range of 40 to 65% and the DC50 is no more than 1 nM. Moreover, on ER-α [2], the Emax is 60 to 85% and the DC50 was no more than 1 nM.

Regarding `CNCCOc1ccc(C2Oc3ccc(O)cc3C(C)=C2c2cccc(O)c2)cc1` (stereo not drawn) [Example 3, 3-(3-Hydroxyphenyl)-4-methyl-2-(4-(2-(methylamino)ethoxy)phenyl)-2H-chromen-6-ol], in the test with MCF-7 cells, the “MCF7 Viability Assay Max Response” value was “++ (++ = a single % value ≧50%)” and the IC50 is no more than 1 nM. Further, at ER-α [1], the Emax is less than 40% and the DC50 was no more than 1 nM. At ER-α [2], the Emax is less than 60% and the DC50 was no more than 1 nM.

Take `CC1=C(c2cccc(O)c2)C(c2ccc(N(C)CCO)cc2)Oc2ccc(O)cc21` (stereo not drawn) [Example 4, 2-(4-((2-Hydroxyethyl)(methyl)amino)phenyl)-3-(3-hydroxyphenyl)-4-methyl-2H-chromen-6-ol]: in the test with MCF-7 cells, the “MCF7 Viability Assay Max Response” value is given as “+ (+ = a single % value <50%)” and the IC50 was greater than 1 nM. At ER-α [1], the Emax is less than 40% and the DC50 is greater than 1 nM. Also, on ER-α [2], the Emax was less than 60% and the DC50 was greater than 1 nM.

In the case of `CCN(CC)CCOc1ccc(C2Oc3ccc(O)cc3C(C)=C2c2cccc(O)c2)cc1` (stereo not drawn) [Example 5, 2-(4-(2-(Diethylamino)ethoxy)phenyl)-3-(3-hydroxyphenyl)-4-methyl-2H-chromen-6-ol], in the test with MCF-7 cells, the “MCF7 Viability Assay Max Response” value is “++ (++ = a single % value ≧50%)” and the IC50 was no more than 1 nM. Besides, on ER-α [1], the Emax is less than 40% and the DC50 was greater than 1 nM. Moreover, at ER-α [2], the Emax is less than 60% and the DC50 is no more than 1 nM.

In the case of `CC1=C(c2cccc(O)c2)C(c2ccc(OC[C@H](C)N3CCCC3)cc2)Oc2ccc(O)cc21` (stereo partly drawn) [Example 6, 3-(3-Hydroxyphenyl)-4-methyl-2-(4-((S)-2-(pyrrolidin-1-yl)propoxy)phenyl)-2H-chromen-6-ol], in the test on MCF-7 cells, the “MCF7 Viability Assay Max Response” value is given as “++ (++ = a single % value ≧50%)” and the IC50 was no more than 1 nM. Moreover, at ER-α [1], the Emax is no less than 65% and the DC50 is no more than 1 nM. Moreover, at ER-α [2], the Emax was 60 to 85% and the DC50 was no more than 1 nM.

For the compound `CC1=C(c2cccc(O)c2)C(c2ccc(OC[C@@H](C)N3CCCC3)cc2)Oc2ccc(O)cc21` (stereo partly drawn) [Example 7, 3-(3-Hydroxyphenyl)-4-methyl-2-(4-((R)-2-(pyrrolidin-1-yl)propoxy)phenyl)-2H-chromen-6-ol], in the test with MCF-7 cells, the “MCF7 Viability Assay Max Response” value is given as “+ (+ = a single % value <50%)” and the IC50 is no more than 1 nM. At ER-α [1], the Emax is less than 40% and the DC50 was greater than 1 nM. At ER-α [2], the Emax is less than 60% and the DC50 was no more than 1 nM.

`CC1=C(c2cccc(O)c2)C(c2ccc(OCCN3CC[C@@H](C)C3)cc2)Oc2ccc(O)cc21` (stereo partly drawn) [Example 8, 3-(3-Hydroxyphenyl)-4-methyl-2-(4-(2-((R)-3-methylpyrrolidin-1-yl)ethoxy)phenyl)-2H-chromen-6-ol]: in the test with MCF-7 cells, the “MCF7 Viability Assay Max Response” value is “++ (++ = a single % value ≧50%)” and the IC50 is no more than 1 nM. Moreover, at ER-α [1], the Emax is no less than 65% and the DC50 is no more than 1 nM. At ER-α [2], the Emax is no less than 85% and the DC50 is no more than 1 nM.

As to `CC1=C(c2cccc(O)c2)C(c2ccc(OCCN3CCCCC3)cc2)Oc2ccc(O)cc21` (stereo not drawn) [Example 9, 3-(3-Hydroxyphenyl)-4-methyl-2-(4-(2-piperidylethoxy)phenyl)-2H-chromen-6-ol], in the test on MCF-7 cells, the “MCF7 Viability Assay Max Response” value is listed as “++ (++ = a single % value ≧50%)” and the half-inhibitory concentration (IC50) is no more than 1 nM. In addition, at ER-α [1], the Emax is 40 to 65% and the DC50 was no more than 1 nM. Further, at ER-α [2], the Emax was 60 to 85% and the DC50 was no more than 1 nM.
